Measured values from patent US11970483B2, “Heterocyclic compound” (Takeda Pharmaceutical Company Limited, priority 2018, dated 2024).

How the values were obtained:
[1] = Rat PK test (cassette dosing); type: in vivo; settings: male SD rats, plasma; for clearance / MRT: intravenous 0.1 mg/kg, 10 compounds cassette; for clearance: read-out: CL total (total clearance) (converted); for MRT: read-out: MRT iv (mean residence time, intravenous administration); for Tmax: oral administration 1 mg/kg, 5 compounds cassette, read-out: Tmax (time to reach maximum plasma concentration)
Procedure: As the rat, 8-week-old male SD rats (Japan SLC, Inc.) were used. They were fed on a solid commercially available diet (CE-2, CLEA Japan, Inc.) and allowed to freely ingest tap water as the drinking water. An intravenous administration solution for the rats was prepared by weighing a test compound, dissolving same in dimethylacetamide (DMA) (Wako Pure Chemical Industries, Ltd.), adding the same volume of 1,3-butanediol (Wako Pure Chemical Industries, Ltd.) and mixing by stirring to give a DMA:1,3-butanediol (1:1, v/v) solution. An oral administration solution was prepared by weighing a test compound, pulverizing same in an agate mortar, and gradually adding 0.5 w/v % aqueous methylcellulose solution to give a suspension. For intravenous administration, the solution was administered into femoral vein of the rats at 0.1 mg/0.5 mL/kg (salt converted to free form). For oral administration, the suspension was administered to the rats at 1 mg/5 mL/kg (salt converted to free form). The cassette dosing method was used for the both administration routes, and the test compound was administered in the following manner.
Compound of Example 1 (intravenous: 10 compounds cassette administration, oral: 5 compounds cassette administration)
Compound of Example 27 (intravenous: 10 compounds cassette administration, oral: 5 compounds cassette administration)
Compound of Example 28 (intravenous: 10 compounds cassette administration, oral: 5 compounds cassette administration)
Compound of Example 29 (intravenous: 10 compounds cassette administration, oral: 5 compounds cassette administration)
In the case of intravenous administration, blood samples were collected from the tail vein at 5, 10, 15, 30 min, 1, 2, 4, 8 hr after administration, an anticoagulation treatment with heparin sodium (Shimizu Pharmaceutical Co., Ltd.) was performed, and plasma was collected after centrifugation and subjected to the measurement of drug concentration. In the case of oral administration, blood samples were collected from the tail vein at 15, 30 min, 1, 2, 4, 8 hr after administration, an anticoagulation treatment with heparin sodium was performed, and plasma was collected after centrifugation and subjected to the measurement of drug concentration.
All drug concentrations were measured by LC-MS/MS analysis. For a pharmacokinetics test, the plasma (50 μL) was placed in a tube, acetonitrile (150 μL) containing internal standard solution was added and they were mixed on a vortex mixer. Thereafter, the mixture was centrifuged (5000 rpm, 5 min, 4° C.). The supernatant (60 μL) after centrifugation was added to 10 mmol/L ammonium formate (160 μL) added earlier and mixed therewith. This sample was injected to LC/MS/MS. The HPLC system used was Shimadzu LC-20A (Shimadzu Corporation), the column used was Unison UK-C18 HT (3.0 μm, 2.0×20 mm, Imtakt) at 50° C., and 10 mmol/L ammonium formate, 0.2% formic acid as mobile phase A and acetonitrile, 0.2% formic acid as mobile phase B were fed each at a flow rate of 1.2 mL/min under gradient conditions of (B concentration: 0 min→0.1 min, 5%, 0.1→0.75 min, 5-99%, 0.75→1.15 min, 99%, 1.15→1.16 min, 5%, 1.16→1.5 min, 5%). MS/MS used was AB Sciex TQ5500-MPX (Applied Biosystems).
Tmax: time to reach maximum plasma concentration
iv: intravenous administration
CL total: total clearance

[2] = test system: Male SD rats; assay: Rat defecation experiment; type: in vivo; settings: oral, mean±standard error
Procedure: Rat Defecation Experiment
Male SD rats (5-6 weeks old) were used after an acclimation period for about 1 week. A test drug (1 mg/kg or 3 mg/kg) was suspended in 0.5% methylcellulose solution and orally administered at a volume of 5 mL/kg, and the number of feces 2 hr later was counted. Only 0.5% methylcellulose was administered to a solvent administration group.

Compound	clearance [1]	MRT [1]	Tmax [1]	number of feces 2 hr later ([2]; 1 mg/kg)	number of feces 2 hr later ([2]; 3 mg/kg)
Cc1c(Cc2ccc(-c3cn(C)nn3)cc2)cc(C(=O)N[C@H]2CCOC[C@@H]2O)c2c1CCO2 [Example 1, 1,5-anhydro-2,3-dideoxy-3-[(4-methyl-5-{[4-(1-methyl-1H-1,2,3-triazol-4-yl)phenyl]methyl}-2,3-dihydro-1-benzofuran-7-carbonyl)amino]-L-threo-pentitol]	3.08 mL/min/kg	108 min	60 min	–	–
COCCNC(=O)c1ccc(Cc2cc(C(=O)N[C@H]3CCOC[C@@H]3O)c3c(c2C)CCO3)cc1F [Example 27, 1,5-anhydro-2,3-dideoxy-3-{[5-({3-fluoro-4-[(2-methoxyethyl)carbamoyl]phenyl}methyl)-4-methyl-2,3-dihydro-1-benzofuran-7-carbonyl]amino}-L-threo-pentitol]	19.6 mL/min/kg	42 min	60 min	–	–
Cc1c(Cc2ccc(C(=O)NCC(=O)N(C)C)c(F)c2)cc(C(=O)N[C@H]2CCOC[C@@H]2O)c2c1CCO2 [Example 28, 1,5-anhydro-2,3-dideoxy-3-({5-[(4-{[2-(dimethylamino)-2-oxoethyl]carbamoyl}-3-fluorophenyl)methyl]-4-methyl-2,3-dihydro-1-benzofuran-7-carbonyl}amino)-L-threo-pentitol]	18.9 mL/min/kg	36 min	48 min	8.0 ± 1.0	8.1 ± 1.4
Cc1c(Cc2ccc(C(=O)NC[C@H]3CCCO3)c(F)c2)cc(C(=O)N[C@H]2CCOC[C@@H]2O)c2c1CCO2 [Example 29, 1,5-anhydro-2,3-dideoxy-3-[(5-{[3-fluoro-4-({[(2R)-oxolan-2-yl]methyl}carbamoyl)phenyl]methyl}-4-methyl-2,3-dihydro-1-benzofuran-7-carbonyl)amino]-L-threo-pentitol]	27.5 mL/min/kg	36 min	30 min	5.0 ± 0.8	9.0 ± 0.7
